Results: patent US20230140430A1, “1H-PYRAZOLO[4,3-d]PYRIMIDINE COMPOUNDS AS TOLL-LIKE RECEPTOR 7 (TLR7) AGONISTS” (BRISTOL-MYERS SQUIBB COMPANY, priority 2020, published 2023)
Like-named read-outs stand apart in the source and are kept apart here.

How the values were obtained:
CD69 = assay: Induction of CD69 in human whole blood; type: cell-based
Experimental: The induction of Type I interferon (IFN) MX-1 genes and the B-cell activation marker CD69 are downstream events that occur upon activation of the TLR7 pathway. The following is a human whole blood assay that measures their induction in response to a TLR7 agonist.
Heparinized human whole blood was harvested from human subjects and treated with test TLR7 agonist compounds at 1 mM. The blood was diluted with RPMI 1640 media and Echo was used to predot 10 nL per well giving a final concentration of 1 uM (10 nL in 10 uL of blood). After mixing on a shaker for 30 sec, the plates were covered and placed in a 37° C. chamber for o/n=17 hrs. Fixing/lysis buffer was prepared (5×->1× in H2O, warm at 37° C.; Cat #BD 558049) and kept the perm buffer (on ice) for later use.
For surface markers staining (CD69): prepared surface Abs: 0.045 ul hCD14-FITC (ThermoFisher Cat #MHCD1401)+0.6 ul hCD19-ef450 (ThermoFisher Cat #48-0198-42)+1.5 ul hCD69-PE (cat #BD555531)+0.855 ul FACS buffer. Added 3 ul/well, spin1000 rpm for 1 min and mixed on shaker for 30 sec, put on ice for 30 mins. Stop stimulation after 30 min with 70 uL of prewarmed 1× fix/lysis buffer and use Feliex mate to resuspend (15 times, change tips for each plate) and incubate at 37 C for 10 min.
Centrifuge at 2000 rpm for 5 min aspirate with HCS plate washer, mix on shaker for 30 sec and then wash with 70 uL in dPBS and pelleted 2×s (2000 rpm for 5 min) and 50 ul wash in FACS buffer pelleted 1×s (2000 rpm for 5 min). Mix on shaker for 30 sec. For Intracellular markers staining (MX-1): Add 50 ul of BD Perm buffer III and mix on shaker for 30 sec. Incubate on ice for 30 minutes (in the dark). Wash with 50 uL of FACS buffer 2× (spin @2300 rpm×5 min after perm) followed by mixing on shaker for 30 sec. Resuspended in 20 ul of FACS buffer containing MX1 antibody ( )(4812)-Alexa 647: Novus Biologicals #NBP2-43704AF647) 20 ul FACS bf+0.8 ul hlgG+0.04 ul MX-1. Spin 1000 rpm for 1 min, mix on shaker for 30se and the samples were incubated at RT in the dark for 45 minutes followed by washing 2×FACS buffer (spin @2300 rpm×5 min after perm). Resuspend 20 ul (35 uL total per well) of FACS buffer and cover with foil and place in 4° C. to read the following day. Plates were read on iQuePlus. The results were loaded into toolset and […] curves are generated in curve master. The y-axis 100% is set to 1 uM of resiquimod.

human TLR7 = biological target: T1, human TLR7 (Homo sapiens, UniProt Q9NYK1); assay: Human TLR7 agonist activity assay (HEK-Blue TLR7 SEAP reporter); type: cell-based; settings: HEK-Blue TLR7 cells, 18 h treatment, average where assay was performed multiple times, read-out: hTLR7 Agonism EC50
T1 construct: host or cells: HEK-Blue TLR7 cells (engineered human embryonic kidney cells)
T1 sequence (Q9NYK1 27-1049): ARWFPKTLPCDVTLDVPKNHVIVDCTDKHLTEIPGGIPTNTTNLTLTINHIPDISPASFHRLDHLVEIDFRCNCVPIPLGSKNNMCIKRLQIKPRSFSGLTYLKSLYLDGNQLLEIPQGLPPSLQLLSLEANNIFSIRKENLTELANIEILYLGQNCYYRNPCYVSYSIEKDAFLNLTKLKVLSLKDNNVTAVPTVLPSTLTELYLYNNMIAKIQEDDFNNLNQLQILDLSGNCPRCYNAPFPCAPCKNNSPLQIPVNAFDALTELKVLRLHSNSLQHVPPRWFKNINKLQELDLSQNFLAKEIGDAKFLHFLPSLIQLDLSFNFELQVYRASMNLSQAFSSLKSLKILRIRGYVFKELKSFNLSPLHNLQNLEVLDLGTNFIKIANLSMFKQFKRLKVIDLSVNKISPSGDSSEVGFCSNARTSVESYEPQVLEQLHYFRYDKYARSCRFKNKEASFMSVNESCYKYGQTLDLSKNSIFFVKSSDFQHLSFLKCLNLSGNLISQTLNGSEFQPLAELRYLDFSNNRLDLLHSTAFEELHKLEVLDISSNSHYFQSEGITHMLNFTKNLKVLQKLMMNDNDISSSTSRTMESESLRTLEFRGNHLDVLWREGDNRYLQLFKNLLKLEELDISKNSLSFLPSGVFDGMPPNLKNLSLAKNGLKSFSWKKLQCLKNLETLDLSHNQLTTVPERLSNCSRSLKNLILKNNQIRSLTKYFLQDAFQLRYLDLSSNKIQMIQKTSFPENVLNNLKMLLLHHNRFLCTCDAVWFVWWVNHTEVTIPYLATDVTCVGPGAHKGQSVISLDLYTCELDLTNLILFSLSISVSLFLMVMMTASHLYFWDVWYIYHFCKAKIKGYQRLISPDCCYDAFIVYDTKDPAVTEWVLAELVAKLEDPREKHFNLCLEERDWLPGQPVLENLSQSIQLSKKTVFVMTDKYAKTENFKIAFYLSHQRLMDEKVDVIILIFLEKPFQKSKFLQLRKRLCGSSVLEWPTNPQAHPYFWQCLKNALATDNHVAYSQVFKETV
Experimental: This procedure describes a method for assaying human TLR7 (hTLR7) agonist activity of the compounds disclosed in this specification.
HEK-Blue™ TLR7 cells were added to each well of a 384-well tissue-culture plate (15,000 cells per well) and incubated 16-18 h at 37° C., 5% CO2. Compounds (100 nl) were dispensed into wells containing the HEK-Blue™ TLR cells and the treated cells were incubated at 37° C., 5% CO2. After 18 h treatment ten microliters of freshly-prepared Quanti-Blue™ reagent (Invivogen) was added to each well, incubated for 30 min (37° C., 5% CO2) and SEAP levels measured using an Envision plate reader (OD=620 nm).

[1] = human whole blood, 17 hrs, CD69 surface staining, 100% set to 1 uM of resiquimod, average where assay was performed multiple times, read-out: hWB CD69 EC50
[2] = Homo sapiens, 17 h, read-out: hWB CD69 EC50 (nM)

SMILES	EC50 (CD69; [1])	EC50 (human TLR7)	EC50 (CD69; [2])
CCCCNc1nc(N)nc2c(C)nn(Cc3ccc(C(=O)NC4CCN(C)CC4)cc3OC)c12 [Compound 117, 4-{[5-amino-7-(butylamino)-3-methyl-1H-pyrazolo[4,3-d]pyrimidin-1-yl]methyl}-3-methoxy-N-(1-methylpiperidin-4-yl)benzamide]	–	467 nM	56.9 nM
CCCCNc1nc(N)nc2cnn(Cc3ccc(C(=O)N4CCN(CCO)CC4)cc3OC)c12 [Compound 105, 2-[4-(4-{[5-amino-7-(butylamino)-1H-pyrazolo[4,3-d]pyrimidin-1-yl]methyl}-3-methoxybenzoyl)piperazin-1-yl]ethan-1-ol]	32.1 nM	32.6 nM	–
CCC1CC(CNc2nc(N)nc3cnn(Cc4ccc(C(=O)NC5CCN(C)CC5)cc4OC)c23)C1 (stereo not shown) [Compound 124, 4-[(5-amino-7-{[(3-ethylcyclobutyl)methyl]amino}-1H-pyrazolo[4,3-d]pyrimidin-1-yl)methyl]-3-methoxy-N-(1-methylpiperidin-4-yl)benzamide]	–	508 nM	95.4 nM
CCCCNc1nc(N)nc2c(C)nn(Cc3ccc(C(=O)N4CCN(CCO)CC4)cc3OC)c12 [Compound 118, 2-[4-(4-{[5-amino-7-(butylamino)-3-methyl-1H-pyrazolo[4,3-d]pyrimidin-1-yl]methyl}-3-methoxybenzoyl)piperazin-1-yl]ethan-1-ol]	63.3 nM	405 nM	–
CCCCNc1nc(N)nc2cnn(Cc3ccc(C(=O)N4CCC(O)CC4)cc3OC)c12 [Compound 113, 1-(4-{[5-amino-7-(butylamino)-1H-pyrazolo[4,3-d]pyrimidin-1-yl]methyl}-3-methoxybenzoyl)piperidin-4-ol]	106 nM	111 nM	–
CCCCNc1nc(N)nc2cnn(Cc3ccc(C(=O)NC4CCN(C)CC4)cc3OC)c12 [Compound 114, 4-{[5-amino-7-(butylamino)-1H-pyrazolo[4,3-d]pyrimidin-1-yl]methyl}-3-methoxy-N-(1-methylpiperidin-4-yl)benzamide]	–	68.9 nM	24.4 nM
CCC[C@@H](CCO)Nc1nc(N)nc2cnn(Cc3ccc(C(=O)NC4CCN(C)CC4)cc3OC)c12 [Compound 125, 4-[(5-amino-7-{[(3S)-1-hydroxyhexan-3-yl]amino}-1H-pyrazolo[4,3-d]pyrimidin-1-yl)methyl]-3-methoxy-N-(1-methylpiperidin-4-yl)benzamide]	–	747 nM	332 nM
COc1cc(C(=O)NC2CCN(C)CC2)ccc1Cn1ncc2nc(N)nc(NCc3cc(C)on3)c21 [Compound 129, 4-[(5-amino-7-{[(5-methyl-1,2-oxazo1-3-yl)methyl]amino}-1H-pyrazolo[4,3-d]pyrimidin-1-yl)methyl]-3-methoxy-N-(1-methylpiperidin-4-yl)benzamide]	–	1240 nM	67.7 nM
CCC[C@@H](CCO)Nc1nc(N)nc2c(F)nn(Cc3ccc(C(=O)NC4CCN(C)CC4)cc3OC)c12 [Compound 128, 4-[(5-amino-3-fluoro-7-{[(3S)-1-hydroxyhexan-3-yl]amino}-1H-pyrazolo[4,3-d]pyrimidin-1-yl)methyl]-3-methoxy-N-(1-methylpiperidin-4-yl)benzamide]	–	179 nM	772 nM

Now from value to compound, other results behind:

EC50 (CD69; [1])	EC50 (human TLR7)	SMILES	EC50 (CD69; [2])
332 nM	968 nM	CCCCNc1nc(N)nc2c(C)nn(Cc3ccc(C(=O)N4CCNC(=O)C4)cc3OC)c12 [Compound 119, 4-(4-{[5-amino-7-(butylamino)-3-methyl-1H-pyrazolo[4,3-d]pyrimidin-1-yl]methyl}-3-methoxybenzoyl)piperazin-2-one]	–
≥ 1000 nM	1300 nM	CCC[C@@H](CCO)Nc1nc(N)nc2cnn(Cc3ccc(C(=O)NCC4CCNCC4)cc3OC)c12 [Compound 101, 4-[(5-amino-7-{[(3S)-1-hydroxyhexan-3-yl]amino}-1H-pyrazolo[4,3-d]pyrimidin-1-yl)methyl]-3-methoxy-N-[(piperidin-4-yl)methyl]benzamide]	–
93.4 nM	264 nM	CCCCNc1nc(N)nc2cnn(Cc3ccc(C(=O)N4CCN(C(C)=O)CC4)cc3OC)c12 [Compound 107, 1-[4-(4-{[5-amino-7-(butylamino)-1H-pyrazolo[4,3-d]pyrimidin-1-yl]methyl}-3-methoxybenzoyl)piperazin-1-yl]ethan-1-one]	–
≥ 1000 nM	602 nM	CCCCNc1nc(N)nc2cnn(Cc3ccc(C(=O)N4CCN(CC(F)(F)F)CC4)cc3OC)c12 [Compound 108, N7-butyl-1-({2-methoxy-4-[4-(2,2,2-trifluoroethyl)piperazine-1-carbonyl]phenyl}methyl)-1H-pyrazolo[4,3-d]pyrimidine-5,7-diamine]	–
224 nM	384 nM	CCCCNc1nc(N)nc2cnn(Cc3ccc(C(=O)N4CCNC(=O)C4)cc3OC)c12 [Compound 115, 4-(4-{[5-amino-7-(butylamino)-1H-pyrazolo[4,3-d]pyrimidin-1-yl]methyl}-3-methoxybenzoyl)piperazin-2-one]	–
120 nM	40.7 nM	CCCCNc1nc(N)nc2cnn(Cc3ccc(C(=O)N4CCNCC4)cc3OC)c12 [Compound 104, N7-butyl-1-{[2-methoxy-4-(piperazine-1-carbonyl)phenyl]methyl}-1H-pyrazolo[4,3-d]pyrimidine-5,7-diamine]	–
≥ 1000 nM	1660 nM	CCCCNc1nc(N)nc2cnn(Cc3ccc(C(=O)NC4CCC4)cc3OC)c12 [Compound 103, 4-{[5-amino-7-(butylamino)-1H-pyrazolo[4,3-d]pyrimidin-1-yl]methyl}-N-cyclobutyl-3-methoxybenzamide]	–
15.8 nM	145 nM	COc1cc(C(=O)N2CCN(C)CC2)ccc1Cn1ncc2nc(N)nc(NCc3cc(C)on3)c21 [Compound 130, 1-{[2-methoxy-4-(4-methylpiperazine-1-carbonyl)phenyl]methyl}-N7-[(5-methyl-1,2-oxazo1-3-yl)methyl]-1H-pyrazolo[4,3-d]pyrimidine-5,7-diamine]	–
≥ 1000 nM	–	CCCCNc1nc(N)nc2cnn(Cc3ccc(C(=O)NC4CCOCC4)cc3OC)c12 [Compound 102, 4-{[5-amino-7-(butylamino)-1H-pyrazolo[4,3-d]pyrimidin-1-yl]methyl}-3-methoxy-N-(oxan-4-yl)benzamide]	–
3.9 nM	16.3 nM	CCCCNc1nc(N)nc2cnn(Cc3ccc(C(=O)N4CCCN(C)CC4)cc3OC)c12 [Compound 110, N7-butyl-1-{[2-methoxy-4-(4-methyl-1,4-diazepane-1-carbonyl)phenyl]methyl}-1H-pyrazolo[4,3-d]pyrimidine-5,7-diamine]	–
